Data on five compounds can be found in PubChem BioAssay AID2060497 (Molecular Pharmacology Branch, DTP, NCI, 2025).
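Further: spheroids exposed to compounds for one week before readout; percent viability relative to DMSO vehicle wells taken as 100%.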

The test system of one test is 317291-083-R-J1-PDC complex spheroids, viability. Nature of the test: Anticancer human tumor 317291-083-R-J1-PDC patient-derived soft tissue sarcoma cell line growth inhibition [GQUAD]. Conditions: second compound 3.16 µM; first compound 0.1 µM; hits give low values. The procedure, abridged: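 Multi-cell-type spheroids of tumor cells with HUVEC and mesenchymal stem cells, treated with drug combinations. Concentrations descend in half-log steps from near clinical Cmax, or from 10 microM where Cmax is unknown; viability read-out.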
Regarding `C=CC(=O)N1CCN(c2nc(=O)n(-c3c(C)ccnc3C(C)C)c3nc(-c4c(O)cccc4F)c(F)cc23)C(C)C1` (stereo unspecified) + Cc1cnc(CNC(=O)c2c(=O)c3ccc(N4CCCN(C)CC4)nc3n3c2sc2ccccc23)cn1, the viability, T/C (in general, the ratio of treated to control) is 21.2%.
Take `COc1cc(C2c3cc4c(cc3C(OC3OC5COC(C)OC5C(O)C3O)C3COC(=O)C23)OCO4)cc(OC)c1O` (stereo unspecified) + Cc1[nH]c2ccc(F)cc2c1-c1nc2c3cccnc3c3ncccc3c2[nH]1: the viability, T/C was 70%.
For the compound `O=C(NO)c1cnc(N2CCN(S(=O)(=O)c3ccc4ccccc4c3)CC2)nc1` + Cc1cnc(CNC(=O)c2c(=O)c3ccc(N4CCCN(C)CC4)nc3n3c2sc2ccccc23)cn1, the viability, T/C was 0.73%.

The test is the same for the next values; noted with them: second compound 3.16 µM; first compound 0.316 µM; hits give low values.
As to `CC(C)(O)C1CCC(Nc2ccc3ncc(-c4cccc(C(F)(F)F)c4)n3n2)CC1` (stereo unspecified) + CN(C)c1ccc(Nc2c3ccc(NC(=O)CCN4CCCC4)cc3nc3cc(NC(=O)CCN4CCCC4)ccc23)cc1, the viability, T/C was 6.22%.
For the compound `C=CC(=O)N1CCN(c2nc(=O)n(-c3c(C)ccnc3C(C)C)c3nc(-c4c(O)cccc4F)c(F)cc23)C(C)C1` (stereo unspecified) + CN(C)c1ccc(Nc2c3ccc(NC(=O)CCN4CCCC4)cc3nc3cc(NC(=O)CCN4CCCC4)ccc23)cc1, the viability, T/C is 29.2%.
On the same count and under the same terms, to `C=CC(=O)N1CCN(c2nc(=O)n(-c3c(C)ccnc3C(C)C)c3nc(-c4c(O)cccc4F)c(F)cc23)C(C)C1` (stereo unspecified) + Cc1cnc(CNC(=O)c2c(=O)c3ccc(N4CCCN(C)CC4)nc3n3c2sc2ccccc23)cn1 belongs 41.6%; to `COc1cc(C2c3cc4c(cc3C(OC3OC5COC(C)OC5C(O)C3O)C3COC(=O)C23)OCO4)cc(OC)c1O` (stereo unspecified) + Cc1[nH]c2ccc(F)cc2c1-c1nc2c3cccnc3c3ncccc3c2[nH]1, 34.5%; to `O=C(NO)c1cnc(N2CCN(S(=O)(=O)c3ccc4ccccc4c3)CC2)nc1` + Cc1cnc(CNC(=O)c2c(=O)c3ccc(N4CCCN(C)CC4)nc3n3c2sc2ccccc23)cn1, 1.12%.

The test is the same for the next values; noted with them: second compound 3.16 µM; first compound 1 µM; hits give low values.
Turning to `CC(C)(O)C1CCC(Nc2ccc3ncc(-c4cccc(C(F)(F)F)c4)n3n2)CC1` (stereo unspecified) + CN(C)c1ccc(Nc2c3ccc(NC(=O)CCN4CCCC4)cc3nc3cc(NC(=O)CCN4CCCC4)ccc23)cc1, the viability, T/C is 0.39%.
Still for that read-out and setting: the result for `C=CC(=O)N1CCN(c2nc(=O)n(-c3c(C)ccnc3C(C)C)c3nc(-c4c(O)cccc4F)c(F)cc23)C(C)C1` (stereo unspecified) + CN(C)c1ccc(Nc2c3ccc(NC(=O)CCN4CCCC4)cc3nc3cc(NC(=O)CCN4CCCC4)ccc23)cc1 reads 51.6%; that for `C=CC(=O)N1CCN(c2nc(=O)n(-c3c(C)ccnc3C(C)C)c3nc(-c4c(O)cccc4F)c(F)cc23)C(C)C1` (stereo unspecified) + Cc1cnc(CNC(=O)c2c(=O)c3ccc(N4CCCN(C)CC4)nc3n3c2sc2ccccc23)cn1, 12.3%.
Same read-out and setting: to `COc1cc(C2c3cc4c(cc3C(OC3OC5COC(C)OC5C(O)C3O)C3COC(=O)C23)OCO4)cc(OC)c1O` (stereo unspecified) + Cc1[nH]c2ccc(F)cc2c1-c1nc2c3cccnc3c3ncccc3c2[nH]1 belongs 16.7%.
Same read-out and setting: the result for `O=C(NO)c1cnc(N2CCN(S(=O)(=O)c3ccc4ccccc4c3)CC2)nc1` + Cc1cnc(CNC(=O)c2c(=O)c3ccc(N4CCCN(C)CC4)nc3n3c2sc2ccccc23)cn1 reads 1.06%.

The test is the same for the next values; noted with them: second compound 3.16 µM; first compound 3.16 µM; hits give low values.
`CC(C)(O)C1CCC(Nc2ccc3ncc(-c4cccc(C(F)(F)F)c4)n3n2)CC1` (stereo unspecified) + CN(C)c1ccc(Nc2c3ccc(NC(=O)CCN4CCCC4)cc3nc3cc(NC(=O)CCN4CCCC4)ccc23)cc1: the viability, T/C was 0.12%.
The same measure, in the same setting: to `C=CC(=O)N1CCN(c2nc(=O)n(-c3c(C)ccnc3C(C)C)c3nc(-c4c(O)cccc4F)c(F)cc23)C(C)C1` (stereo unspecified) + CN(C)c1ccc(Nc2c3ccc(NC(=O)CCN4CCCC4)cc3nc3cc(NC(=O)CCN4CCCC4)ccc23)cc1 belongs 42.4%; to `C=CC(=O)N1CCN(c2nc(=O)n(-c3c(C)ccnc3C(C)C)c3nc(-c4c(O)cccc4F)c(F)cc23)C(C)C1` (stereo unspecified) + Cc1cnc(CNC(=O)c2c(=O)c3ccc(N4CCCN(C)CC4)nc3n3c2sc2ccccc23)cn1, 13.8%.
For the compound `COc1cc(C2c3cc4c(cc3C(OC3OC5COC(C)OC5C(O)C3O)C3COC(=O)C23)OCO4)cc(OC)c1O` (stereo unspecified) + Cc1[nH]c2ccc(F)cc2c1-c1nc2c3cccnc3c3ncccc3c2[nH]1, the viability, T/C is 16.1%.
Still for that read-out and setting: the result for `O=C(NO)c1cnc(N2CCN(S(=O)(=O)c3ccc4ccccc4c3)CC2)nc1` + Cc1cnc(CNC(=O)c2c(=O)c3ccc(N4CCCN(C)CC4)nc3n3c2sc2ccccc23)cn1 reads 0.08%.

The test is the same for the next values; noted with them: second compound 3.16 µM; first compound 10 µM; hits give low values.
As to `CC(C)(O)C1CCC(Nc2ccc3ncc(-c4cccc(C(F)(F)F)c4)n3n2)CC1` (stereo unspecified) + CN(C)c1ccc(Nc2c3ccc(NC(=O)CCN4CCCC4)cc3nc3cc(NC(=O)CCN4CCCC4)ccc23)cc1, the viability, T/C was 0.29%.
Same read-out and setting: the result for `C=CC(=O)N1CCN(c2nc(=O)n(-c3c(C)ccnc3C(C)C)c3nc(-c4c(O)cccc4F)c(F)cc23)C(C)C1` (stereo unspecified) + CN(C)c1ccc(Nc2c3ccc(NC(=O)CCN4CCCC4)cc3nc3cc(NC(=O)CCN4CCCC4)ccc23)cc1 reads 21.1%.
Still for that read-out and setting: to `C=CC(=O)N1CCN(c2nc(=O)n(-c3c(C)ccnc3C(C)C)c3nc(-c4c(O)cccc4F)c(F)cc23)C(C)C1` (stereo unspecified) + Cc1cnc(CNC(=O)c2c(=O)c3ccc(N4CCCN(C)CC4)nc3n3c2sc2ccccc23)cn1 belongs 14.6%.
As to `COc1cc(C2c3cc4c(cc3C(OC3OC5COC(C)OC5C(O)C3O)C3COC(=O)C23)OCO4)cc(OC)c1O` (stereo unspecified) + Cc1[nH]c2ccc(F)cc2c1-c1nc2c3cccnc3c3ncccc3c2[nH]1, the viability, T/C was 10%.
Same read-out and setting: the result for `O=C(NO)c1cnc(N2CCN(S(=O)(=O)c3ccc4ccccc4c3)CC2)nc1` + Cc1cnc(CNC(=O)c2c(=O)c3ccc(N4CCCN(C)CC4)nc3n3c2sc2ccccc23)cn1 reads 0.11%.

Still in this test, the particulars now being: second compound 10 µM; first compound 0.0316 µM; hits give low values.
Turning to `CC(C)(O)C1CCC(Nc2ccc3ncc(-c4cccc(C(F)(F)F)c4)n3n2)CC1` (stereo unspecified) + CN(C)c1ccc(Nc2c3ccc(NC(=O)CCN4CCCC4)cc3nc3cc(NC(=O)CCN4CCCC4)ccc23)cc1, the viability, T/C is 0.6%.
Still for that read-out and setting: to `C=CC(=O)N1CCN(c2nc(=O)n(-c3c(C)ccnc3C(C)C)c3nc(-c4c(O)cccc4F)c(F)cc23)C(C)C1` (stereo unspecified) + CN(C)c1ccc(Nc2c3ccc(NC(=O)CCN4CCCC4)cc3nc3cc(NC(=O)CCN4CCCC4)ccc23)cc1 belongs 13.5%.
On the same count and under the same terms, the result for `C=CC(=O)N1CCN(c2nc(=O)n(-c3c(C)ccnc3C(C)C)c3nc(-c4c(O)cccc4F)c(F)cc23)C(C)C1` (stereo unspecified) + Cc1cnc(CNC(=O)c2c(=O)c3ccc(N4CCCN(C)CC4)nc3n3c2sc2ccccc23)cn1 reads 22%.
